This note sets out measurements from patent publication US11529391B2, “Reversing deficient hedgehog signaling restores deficient skeletal regeneration” (The Board of Trustees of the Leland Stanford Junior …, priority 2017, dated 2022).

Assay [1] concerns mSSCs and BCSPs. Put plainly: FACS count of mSSCs and BCSPs in calluses after Hh antagonism. Particulars: post-fracture day 7 calluses of treated versus untreated WT mice. The assay is classed as in vivo, mouse. How it is done:
(§1) To verify that Hh antagonism impairs fracture repair in vivo, we administered XL139 to WT mice via oral gavage immediately after injury and assessed healing femur strength at post-fracture week 4 using MST.
Isolation of skeletal progenitor cells. Uninjured femora and fractured femora were harvested at post-fracture days 3, 7, 10, 14, 21, and 28. Fracture calluses were dissected using microscopy. Tissues were crushed with mortar and pestle in collagenase buffer (2.2 mg/ml collagenase, DNase, 1000×1 M CaCl2, 100×p188, 50×1 M Hepes, m199 solvent), and heated to 37° C. for 10 min to activate collagenase. Each sample underwent 3 serial digestions at 37° C. for 25 minutes under gentle agitation. Dissociated cells were filtered through a 40 μm nylon mesh and washed in FACS buffer (2% fetal bovine serum in PBS). Each sample was pelleted at 200 g at 4° C. and resuspended in FACS buffer. Then, each sample was layered onto a histopaque gradient prior to centrifugation at 1400 rpm for 15 minutes at room temperature with zero acceleration. The cloudy interphase was aspirated, washed with FACS buffer, and centrifuged. The cells were stained with fluorochrome-conjugated antibodies against CD45, Ter119, Tie2, αv-integrin, Ly 51, CD105, Thy 1.1, and Thy 1.2 for purification by flow cytometry. Cells were sorted twice (once on “yield,” then on “purity”) to increase purity (BD FACS Aria).

Assay [2] relates to WT mice. Put plainly: Femoral fracture healing after Hh antagonism, Mechanical Strength Testing (MST). In kind it is in vivo, mouse. Particulars: oral gavage immediately after injury, post-fracture week 4, versus untreated. How it is done:
as §1
Femoral fractures. Ten-week old mice were anesthetized with aerosolized isoflurane. Analgesia was administered and the surgical site was prepared prior to skin incision. A medial parapatellar incision was created. The patella was dislocated laterally to expose the femoral condyles. The medullary cavity was reamed using a 25 to 23 G×⅝-inch regular bevel needle (BD) prior to insertion of an intramedullary pin of equal diameter into the medullary cavity. A transverse, middiaphyseal fracture was made using scissors. The pin remained in situ to provide relative stability during healing. The patella was relocated, muscles were reapproximated, and the skin was closed using a 6/0 nylon suture. Animals were radiographed to verify fracture alignment and assess fracture fixation. Animals with fracture displacement were excluded. Pin diameter was adjusted according to femoral cavity lumen diameter to minimize migration.
Mechanical Strength Testing (MST). MST was performed using a delaminator run by R.H. Dauskardt laboratory at Stanford University. […] The maximum load (N) to fracture was recorded (FIG. 9).

For assay [3], the system named is post-fracture day 7 WT mSSCs. Put plainly: In vitro osteogenesis of mSSCs under Hh antagonism, alizarin red staining. In kind it is cell-based, mouse. Particulars: post-fracture day 7 WT mSSCs treated in vitro. From the text: To investigate if Hh signaling is essential for mSSC-dependent osteogenesis, we antagonized Hh signaling in post-fracture day 7 WT mSSCs in vitro using XL139, a small molecule antagonist of Smo.
(§2) Cell culture. Cells were maintained in vitro in Minimum Essential Media (MEM) with 10% FBS and 1% penicillin-streptomycin (Penstrep) under 2% O2/7.5% CO2. Each plate was coated with 0.1% gelatin. Cultured cells were lifted using collagenase II buffer (Sigma-Aldrich). For mSSC colony forming assays, cells were cultured for 2 weeks and colonies were counted using phase microscopy. The cells were lifted for staining and analysis by FACS. Osteogenic differentiation medium consisted of Dulbecco's Modified Eagle Medium with 10% FBS, 100 μg/ml ascorbic acid, and 10 mM-glycerophosphate. mSSCs isolated from P3, WT, and db mice were maintained in either regular media (MEM-alpha medium with 10% FBS, 1% Penstrep) or regular media supplemented with Ihh (R&D, […]), Shh (R&D, 500 pg/mL), or PBS under 2% O2/7.5% CO2 conditions. After 7 days, cells were lifted for staining and analysis by FACS or for RNA extraction and qRT-PCR.

Assay [4] relates to Ihh expression. Put plainly: qRT-PCR of Ihh expression in mSSC and BCSP cultures in supplemented media. In kind it is cell-based, mouse. How it is done: To determine if high levels of glucose or TNFα could directly repress Hh expression in skeletal niches, we cultured FACS-sorted mSSCs and BCSPs from uninjured P3 WT femora in glucose-supplemented, TNFα-supplemented, or control media for 48 hours. […] Furthermore, neutralization of TNFα with anti-TNFα antibodies restored Ihh expression levels in mSSCs cultured in dbLR serum (FIG. 15).
as §2
Quantitative reverse transcription polymerase chain reaction (qRT-PCR). RNA was isolated from cells using the RNeasy Mini kit (Qiagen) as per manufacturer's instructions. Reverse transcription was performed and gene expression was examined by qRT-PCR using the Applied biosystems Prism 7900HT sequence detection system (Applied Biosystems) and SYBR Green PCR Master Mix (Applied Biosystems). All values were normalized using glyceraldehyde 3-phosphate dehydrogenase for mouse samples and using beta-actin for human samples. Specific primer sequences for genes of interest were obtained from PrimerBank.
In general terms: Real-time PCR tracks product formation cycle by cycle.

Entries after “also recorded” stand apart in the source; their conditions may differ.

Turning to `CNCc1ccc(C)c(NC(=O)c2ccc(Nc3nc(-c4ccccc4)c4ccccc4n3)cc2)c1` [XL139], the “number of mSSCs and BCSPs” value in assay [1] was “highly significant reduction”. In addition, in assay [2], the “healing femur strength (MST)” value is “reduced significantly”. Moreover, in assay [3], the “osteogenic potential of mSSCs (alizarin red staining)” value is listed as “dose-dependent reduction; also recorded: reduces”.
As to TNFα, the “dose dependence of repression of Ihh expression in BCSPs” value in assay [4] (BCSP-derived cultures from uninjured P3 mice) was “dose dependent; also recorded: dose-dependent”. For the same molecule, in assay [4] (BCSPs from uninjured P3 WT femora, supplemented media 48 hours versus control media), the “Ihh expression (qRT-PCR) in BCSP cultures” value is “significantly reduced; also recorded: reduces”. Moreover, the “Ihh expression (qRT-PCR) in mSSC cultures” value in assay [4] (mSSCs from uninjured P3 WT femora, supplemented media 48 hours versus control media) is on record as “significantly reduced; also recorded: significantly diminishes”.
